Data reported in patent US8901276B2, “Peptide reagents and methods for detection of colon dysplasia” (The Regents of the University of Michigan, priority 2010, dated 2014).
Where no end group is shown, it is not given here.

Experiments:
colonic adenomas [1] = assay: In vivo small animal fluorescence endoscopy with FITC-labeled peptides; parameters: species or system CPC;Apc mice; conditions: topical, 5 min incubation, mean±SD
Method: Prior to peptide administration, the colon was prepped using a tap water lavage. Using a small animal endoscope (Karl Storz Veterinary Endoscopy, Goleta, Calif.) with an instrument channel for performing biopsy, polyps suitable for peptide administration were located and the colon was rinsed with water until all mucous was removed. FITC-labeled Peptide 1 and Control peptide 1 were delivered in 1×PBS through the instrument channel. The peptides were allowed to incubate for 5 minutes after which the colon was cleansed 3× with a tap water to remove the unbound peptide. […] Fluorescence excitation produced with a 450-475 nm passband filter that can be manually switched to the optical path of a 175 W Nova Xenon light source was delivered to the endoscope via a 3 mm diameter fluid light cable (250 cm length). Fluorescence images were collected with a 510 nm long-pass barrier filter to block the excitation light and detected with a 3-chip color camera with an integrated parfocal zoom lens. Real time video was recorded via firewire connected to a personal computer. Polyps in CPC;Apc mice developing distal colonic adenomas (Peptide 1, n=6 mice, n=18 polyps; Control peptide 1, n=4 mice, n=7 polyps) in addition to Cre recombinase negative littermate controls (Peptide 1, n=2 mice) and Hyperplastic Kras mice (Peptide 1, n=3 mice) were imaged using both white light and fluorescence endoscopy. […]

[2] = test system: dysplastic crypts of excised polyps; assay: Confocal fluorescence imaging of ex vivo binding; parameters: species or system CPC;Apc mice; conditions: ex vivo incubated polyps
Method: Preferential binding of the Peptide 1 compared to the Control peptide 1 on the adenomatous polyps was again confirmed with confocal microscopy. After peptide incubation, excised polyps were incubated ex vivo in 1 μg/mL Hoechst dye for 5 min to stain living nuclei, rinsed 3× with 1×PBS and imaged on an Olympus Confocal Microscope (Olympus, Tokyo, Japan).

colonic adenomas [3] = assay: In vivo NIR imaging of Cy5.5-labeled AKP peptides; parameters: species or system CPC;Apc mice; conditions: for T/B ratio: 100 μM, 1.5 mL topical, 5 min; for detection of lesions by size: adenomas ˜0.5 to 4 mm
Method: The binding activity of the synthetic peptides to colonic dysplasia was assessed in vivo in 3 cohorts of CPC;Apc mice: 1) AKP-multimer, n=14 mice with n=33 adenomas, 2) AKP-monomer, n=14 mice with n=27 adenomas, and 3) trilysine core, n=8 mice with n=17 adenomas as a control. For the imaging studies, anesthesia was induced and maintained in the animals with inhaled isoflurane mixed with oxygen via a nose cone at a dose of 4% and 2% at a flow rate of 0.5 liter/min, respectively. Prior to applying the peptides, the colon was prepped using a tap water lavage. The adenomas were viewed endoscopically, and videos were recorded using white light with a small animal endoscope (Karl Storz Veterinary Endoscopy, Goleta, Calif.). The colon was rinsed with water until all mucous and other debris was removed. Adenomas from approximately 0.5-4 mm in diameter that were not covered in debris, including stool and mucous, were included in the study.
The Cy5.5-labeled peptides were delivered at a concentration of 100 μM in PBS containing 2.5% DMSO (dimethyl sulfoxide) through the instrument channel of the endoscope. During peptide administration, 1.5 mL of peptide was delivered to the distal colon in each mouse. The peptide was allowed to incubate for 5 min after which the colon was cleansed 3× with a tap water to remove the unbound peptide. Prior to imaging, the colon was inspected for residual peptide solution, and when clean, the colon was insufflated with air and imaged with the wide field endoscope which provides excitation at 671 nm. Fluorescence and reflectance videos were collected using Axiovision 4.8.1 software. Fluorescence videos were collected at 100 ms/frame (10 Hz), and transferred to the computer for storage by a firewire connection. A filter wheel was incorporated into the handle of the housing to quickly switch between collection of reflectance and fluorescence images. White light, fluorescence and reflectance images were collected from 1) n=14 mice having n=33 adenomas with AKP-multimer, 2) n=14 mice having n=27 adenomas with AKP-monomer, and 3) n=8 mice having n=17 adenomas with the trilysine (control). The CPC;Apc mice imaged ranged in age from 3 to 6 months. Fluorescence images were exported as videos in zvi format (16 bit digital resolution) using LabView software. Sequentially-collected white light and fluorescence images for each adenoma were analyzed. Separate regions of interest (ROI) were defined around the adenoma and adjacent normal-appearing mucosa on the white light image, and the ROI's were overlayed onto the fluorescence images. The target to-background (T/B) ratio was determined by ratioing the mean intensities from these 2 ROI's.

CCD-841Con cells [4] = assay: Flow cytometry of FITC-labeled AKP peptides; format: cell-based, human; conditions: 10 μM, 60 min, 4° C.
Text: (§1) Peptides labeled with 5-FITC were used for the validation assays of cell binding. Preferential binding of the multimer peptide, monomer peptide, and trilysine to different human colorectal cancer (SW480, and HT29) and control cells (CCD841-Con) was validated on flow cytometry. A total of 5×10^5 cells were used with each probe. The confluent cells were detached using enzyme free cell dissociation buffer (Invitrogen, Carlsbad, Calif.) or trypsin with 0.25% EDTA (Mediatech Inc, Manassa, Va.) and immersed in blocking buffer, PBS with 1% bovine serum albumin (BSA), for 30 min at 4° C. with continuous agitation. After blocking, cells were washed with 1×PBS and spun down for 5 min at 1000 rpm. Then cells were incubated with the 5-FITC labeled peptides and trilysine (10 μM) for 60 min at 4° C. with continuous agitation. The cells were then washed 3× with cold PBST followed by immediate fixation for 10 min with 4% paraformaldehyde. The cells were washed again (1×) with PBS and resuspended in 1 mL of PBS. Flow cytometry was performed using FACSDiVa (BD® LSRII, BD Biosciences, San Jose, Calif.) and analyzed using Flowjo analysis program (Tree Star Inc, Ashland, Oreg.). The gain was kept constant for all experiments.

HT29 cells [5] = assay: Flow cytometry of FITC-labeled AKP peptides; format: cell-based, human
Text: as §1

SW480 cells [6] = assay: Flow cytometry of FITC-labeled AKP peptides; format: cell-based, human; conditions: 10 μM, 60 min, 4° C.
Text: as §1

CCD-841Con cells [7] = assay: Fluorescence microscopy of FITC-labeled AKP peptides; format: cell-based, human; conditions: 10 μM, 4° C., 1 hr
Method: (§2) Preferential binding of the FITC-labeled peptides to the target and non-target cells as mentioned above was further validated via fluorescence microscopy. Cells (˜7.5×10^3) were seeded on cover slips to ˜80% confluence. The cells were then incubated with 10 μM of 5-FITC-labeled peptides and trilysine at 4° C. for 1 hr followed by staining with 1 μg/mL Hoechst dye (Sigma Aldrich, St. Louis, Mo.). The cells were washed 3× with PBS and fixed with 4% paraformaldehyde at RT for 10 min. After fixation, the cells were washed again with PBS (1×) and mounted with ProLong Gold reagent (Invitrogen, Carlsbad, Calif.) and fluorescence images were collected with confocal microscopy (Leica TCS SP5 Microsystems, Bannockburn, Ill.). The specific peptide binding activity of the FITC-labeled AKP-multimer and AKP-monomer peptides was compared.

HT29 cells [8] = assay: as above; format: cell-based, human
Method: as §2

SW480 cells [9] = assay: as above; format: cell-based, human; conditions: 10 μM, 4° C., 1 hr
Method: as §2

HT29 cells [10] = assay: Measurement of binding affinity by flow cytometry; parameters: species or system human; conditions: FITC-labeled, 0 to 10 μM, 4° C., 1 hr
Method: (§3) The binding affinity of multimer and monomer peptide was measured by varying the concentration of the 5-FITC-labeled peptides and trilysine incubated with the target cells (1×10^5) until saturation of fluorscence intensity was achieved. The FITC-labeled peptide was serially diluted in PBS at concentrations that varied from 0 to 10 μM and incubated with the target cells at 4° C. for 1 hr. The unbound peptide was rinsed off the cells by washing 3× with cold PBS/0.2% Tween-20 solution. The cells were fixed with 4% PFA, as mentioned above, washed 1× with PBS, and resuspended in 1 mL of PBS. Cells were transferred to a 5 mL tube and subjected to flow-cytometric analysis. The median fluorescence intensity from each concentration of peptides was used to calculate the affinity constant. The equilibrium dissociation constants (Kd=1/Ka) of the peptide-cell interaction were obtained by fitting the data to the non-linear equation I[X]=(I0+ImaxKa[X])/(I0+Ka[X]). I0 and Imax are the initial and maximum fluorescence intensities, corresponding to no peptide and at saturation, respectively, and [X] represents the concentration of the bound peptide. Origin 6.1 data analysis software (Origin Lab Corp, Northampton, Mass.) was used to perform a non-linear least square fit of the data.

SW480 cell line = assay: Measurement of binding affinity by flow cytometry; parameters: species or system human; conditions: FITC-labeled, 0 to 10 μM, 4° C., 1 hr
Method: as §3

HT29 cells [11] = assay: Kinetic measurements by flow cytometry; format: binding, human; conditions: for rate constant K: 10 μM, 4° C., 0-60 min, first order fit
Method: The binding kinetics for AKP-monomer and AKP-multimer peptide was further evaluated on the target cells in the presence of 10 μM peptide concentration. The target cells (5×10^5) were detached and blocked as mentioned earlier and incubated with both monomer and multimer peptides at 4° C. over time from 0-60 min. After completing the incubation for each time course, the samples were prepared for flow cytometry, as mentioned above. The kinetics of peptide binding with the cell surface was determined by measuring the shift in the intensity of FITC-channel as a function of time. The resulting data were converted to median values as a function of time, and the rate constant was calculated using first order rate kinetics Y=a−b*exp^(−kx); where a=maximum value, b=difference in intensity (I−I0), and K=rate constant. Curve fits were performed using Origin 6.1 data analysis software.

[12] = test system: isolated colonic epithelial cells from adenomas; assay: Flow cytometry of FITC-conjugated phage clones; format: cell-based, CPC;Apc mice
Text: Specific binding of the candidate peptides to primary dysplastic colonic epithelial cells were validated on flow cytometry ex vivo and with small animal endoscopy in vivo using FITC-labeled peptides using a non-scanning white light endoscope.
Phages that bound to colonic adenomas approximately 10 times greater in number than to normal appearing colonic mucosa were chosen. As a result, 42 individual phage clones were sequenced from the third round of biopanning, and were individually amplified and conjugated to 5′-FITC. Binding to isolated colonic epithelial cells from adenomas for each phage clone was analyzed using flow cytometry. A common 7-mer phage that expresses the sequence HAIYPRH (SEQ ID NO: 29) is a known contaminant, and was run (labeled # in Supplementary FIG. 1B) to ensure the validity of the assay. […] Six phage clones with a T/B ratio (target to wild-type phage)>1.9 were identified as ALTPTPP (SEQ ID NO: 30), NLVNLLP (SEQ ID NO: 31), ANYPREP (SEQ ID NO: 32), ATTVPAS (SEQ ID NO: 33), LTTHYKL (SEQ ID NO: 26), and AKPGYLS (SEQ ID NO: 25). The KCCFPAQ (SEQ ID NO: 2) peptide had been previously found to bind to human HT29 cells.

[13] = cell line not specified (SW480, HT29, CCD-841Con tested)

GGGAGGGA [FITC-Control peptide 1, control peptide containing Gly and Ala, FITC-labeled]
T/B (polyp/normal colon, target to background ratio) (colonic adenomas [1]): 1.14±0.15 | binding to dysplastic crypts, confocal microscopy [2]: Minimal to no binding

AKP-multimer: tetrameric version of AKPGYLS anchored on a trilysine core; Cy5.5 label in vivo, FITC label in vitro (also: tetramer on trilysine core, Cy5.5 or FITC label)
NIR fluorescence signal from adenomas (colonic adenomas [3]; Cy5.5-labeled): significantly amplified | average fluorescence intensity from colonic adenomas relative to AKP-monomer and trilysine control (colonic adenomas [3]; Cy5.5-labeled): ~1.8 fold | T/B ratio (colonic adenomas [3]; Cy5.5-labeled): 3.84±0.26 | detection of lesions by size (colonic adenomas [3]): detected all lesions regardless of size | counts relative to unstained cells (CCD-841Con cells [4]): 2.2 times | counts relative to unstained cells (HT29 cells [5]; HT29, FITC-labeled, 10 μM, 60 min, 4° C.): 26.1 times | counts relative to unstained cells (SW480 cells [6]): 20.2 times | binding to plasma membrane (CCD-841Con cells [7]): not to CCD-841Con cells | binding to plasma membrane (HT29 cells [8]; HT29, FITC-labeled, 10 μM, 4° C., 1 hr): bound specifically to the plasma membrane | binding to plasma membrane (SW480 cells [9]): bound specifically to the plasma membrane | Kd (HT29 cells [10]): 6.4 nM | Kd (SW480 cell line): 101 nM | binding speed relative to AKP-monomer (HT29 cells [11]): ~2 fold | rate constant K (HT29 cells [11]): 0.1136 min⁻¹ | rate constant K (HT29 cells [11]; listed as multimer): 0.1136 min⁻¹

HAIYPRH
T/B ratio (target to wild-type phage) [12]: 1.10±0.08

AKPGYLSGGGSK-NH2 [AKP-monomer, Cy5.5 label in vivo, FITC label in vitro]
NIR fluorescence signal from adenomas (colonic adenomas [3]; Cy5.5-labeled): faint fluorescence intensity | T/B ratio (colonic adenomas [3]; Cy5.5-labeled): 2.21±0.13 | detection of lesions by size (colonic adenomas [3]): did not visualize lesions smaller than ˜1 mm | extent of cell binding on flow cytometry (HT29 cells [5]; [13]): bound to a lower extent than the AKP-multimer | cell staining on microscopy (HT29 cells [8]; [13]): lower fluorescence intensity at the cell surface | Kd (HT29 cells [10]): 310 nM | Kd (SW480 cell line): 1210 nM | rate constant K (HT29 cells [11]): 0.0663 min⁻¹
